From patent US20040067955A1, “Pyridazinone compound and pharmaceutical use thereof” (Fujisawa Pharmaceutical Co. Ltd., priority 2002, published 2004) come the findings set out here.

One data set relates to ddY mice. The data set is described as follows: Anticatalepsy activity in mouse (haloperidol-induced catalepsy, bar test). Type of data set: in vivo. The following applies: test compound 3.2 mg/kg orally, ddY mice (n=7); haloperidol 0.32 mg/kg i.p. 30 min later; measured 30 min after injection. Here is the method: The test compound (3.2 mg/kg) was administered orally with ddY mice (n=7). Then, haloperidol (0.32 mg/kg) was injected intraperitoneally 30 min. after the administration of the compound. Thirty min. After the injection, the cataleptic responses of mice were measured. The forelimbs of each mouse were placed on a 3 cm high, 3 mm wide horizontal bar, and the duration of cataleptic posture was measured for up to 30 sec.

The next data set deals with human A2a receptor (Homo sapiens, UniProt P29274). The data set can be described thus: Adenosine antagonistic activity: radioligand binding with [3H]CGS 21680 (20 nM). Here is the method: (§1) The adenosine antagonistic activity [Ki(nM)] of the test compound was examined by radioligand binding techniques using 8-cyclopentyl-1,3-dipropylxanthine, [dipropyl-2,3-^3H (N)] ([^3H]DPCPX, 4.5 nM) for human A1 receptor and [^3H]CGS 21680 (20 nM) for human A2a receptor.
Sequence of human A2a receptor (P29274 whole entry): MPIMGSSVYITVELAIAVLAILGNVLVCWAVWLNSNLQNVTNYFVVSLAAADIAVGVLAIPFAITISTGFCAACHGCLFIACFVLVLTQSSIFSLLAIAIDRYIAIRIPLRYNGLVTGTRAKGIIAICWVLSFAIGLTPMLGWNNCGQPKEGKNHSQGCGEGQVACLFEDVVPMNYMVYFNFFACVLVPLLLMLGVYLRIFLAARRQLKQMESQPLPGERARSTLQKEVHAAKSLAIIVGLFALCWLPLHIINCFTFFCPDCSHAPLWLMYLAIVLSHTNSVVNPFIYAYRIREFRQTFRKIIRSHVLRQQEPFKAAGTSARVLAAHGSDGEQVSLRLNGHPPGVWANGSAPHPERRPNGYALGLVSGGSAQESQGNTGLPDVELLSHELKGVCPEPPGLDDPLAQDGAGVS

In another data set the target is T1, human A1 receptor (Homo sapiens, UniProt P30542).
T1 sequence (P30542 1-326): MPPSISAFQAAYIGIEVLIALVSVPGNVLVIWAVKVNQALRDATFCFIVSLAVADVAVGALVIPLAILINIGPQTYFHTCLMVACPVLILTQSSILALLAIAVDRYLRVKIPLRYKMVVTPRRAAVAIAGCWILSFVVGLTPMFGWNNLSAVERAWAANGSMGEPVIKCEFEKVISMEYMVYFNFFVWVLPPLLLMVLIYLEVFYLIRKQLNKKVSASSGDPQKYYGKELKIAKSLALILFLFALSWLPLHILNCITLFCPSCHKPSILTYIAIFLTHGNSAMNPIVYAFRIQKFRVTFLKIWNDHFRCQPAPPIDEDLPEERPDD
The data set is described as follows: Adenosine antagonistic activity: radioligand binding with [3H]DPCPX (4.5 nM). How it is done: as §1

As usually defined, the Ki is the equilibrium dissociation constant of an inhibitor or competing ligand from its target. A higher Ki goes with weaker binding. The melting point is the temperature, or range, at which the solid turns liquid. Turning to `CC(C)n1nc(-c2cc(C#N)c(N)nc2-c2ccccc2)ccc1=O` [Example 3, 2-Amino-5-(1-isopropyl-6-oxo-1,6-dihydro-3-pyridazinyl)-6-phenylnicotinonitrile], the melting point lay within 197 to 198 °C. For the same compound, the “Manifestation rate of catalepsy (number of mouse)” value (shortened to “Manifestation rate of catalepsy”) in the data set with ddY mice is 0/7. Besides, the affinity at human A2a receptor, expressed as Ki, was 0.65 nM. The compound also gave a Ki at human A1 receptor of 0.56 nM.

`CC(C)n1nc(-c2cc(NC(=O)c3ccccc3)cnc2-c2ccccc2)ccc1=O` [Example 27, N-[5-(1-isopropyl-6-oxo-1,6-dihydro-3-pyridazinyl)-6-phenyl-3-pyridyl]benzamide]: the melting point is 207 to 208 °C. In the data set on ddY mice, the “Manifestation rate of catalepsy” value was 0/7. The same compound had a Ki on human A2a receptor of 1.24 nM. The inhibitory constant (Ki) on human A1 receptor turned out to be 0.31 nM.

Consider `CC(C)n1nc(-c2cc(O)cnc2-c2ccccc2)ccc1=O` [Example 53, 6-(5-hydroxy-2-phenyl-3-pyridyl)-2-isopropyl-3(2H)-pyridazinone], for which the Ki at human A2a receptor stood at 3.87 nM; on human A1 receptor it was 0.43 nM.

`CC(C)n1nc(-c2cc(Br)c(N)nc2-c2ccccc2)ccc1=O` [Example 33, 6-(6-amino-5-bromo-2-phenyl-3-pyridyl)-2-isopropyl-3(2H)-pyridazinone] registered a melting point of 174 to 176 °C. This compound showed a Ki on human A2a receptor of 0.91 nM. Besides, the Ki on human A1 receptor worked out at 0.41 nM.

As to `CC(C)n1nc(-c2cc(Cl)c(N)nc2-c2ccc(F)cc2)ccc1=O` [Example 74, 6-[6-Amino-5-chloro-2-(4-fluorophenyl)-3-pyridyl]-2-isopropyl-3(2H)-pyridazinone], the “Manifestation rate of catalepsy” value in the data set with ddY mice was 0/7. Moreover, the figures for the Ki at human A2a receptor and at human A1 receptor were 1.28 nM and 6.42 nM, respectively.

For the compound `CC(C)n1cc(-c2cc(Cl)c(N)nc2-c2ccccc2)cc(Cl)c1=O` [Example 119, 6′-Amino-5,5′-dichloro-1-isopropyl-2′-phenyl-3,3′-bipyridin-6(1H)-one], in the data set with ddY mice, the “Manifestation rate of catalepsy” value was 0/7. The Ki at human A2a receptor worked out at 2.06 nM; at human A1 receptor, 1.99 nM.

As for `CC(C)n1nc(-c2cc(-c3ccn[nH]3)cnc2-c2ccccc2)ccc1=O` [Example 24, 2-isopropyl-6-[2-phenyl-5-(pyrazol-5-yl)-3-pyridyl]-3(2H)-pyridazinone], the melting point fell in the range of 212 to 213 °C. Also, the “Manifestation rate of catalepsy” value with ddY mice is listed as 0/7. The same compound yielded a Ki at human A2a receptor of 2.7 nM. At human A1 receptor, this compound showed a Ki of 0.46 nM.

On to `CC(C)n1nc(-c2cc(-c3nc(-c4ccccc4)cs3)c(N)nc2-c2ccccc2)ccc1=O` [Example 40, 6-[6-Amino-5-(4-phenyl-1,3-thiazol-2-yl)-2-phenyl-3-pyridyl]-2-isopropyl-3(2H)-pyridazinone], for which the Ki came out at 6.58 nM on human A2a receptor and 4.44 nM at human A1 receptor.

On to `COC(=O)c1cc(-c2ccc(=O)n(C(C)C)n2)c(-c2ccccc2)nc1OCC(N)=O` [Example 50, Methyl 2-carbamoylmethoxy-5-(1-isopropyl-6-oxo-1,6-dihydro-3-pyridazinyl)-6-phenylnicotinate], for which the melting point lay in the range of 183 to 184 °C.

`CC(C)n1nc(-c2cc(C(=O)NCc3ccccn3)cnc2-c2ccccc2)ccc1=O` [Example 17, 5-(1-Isopropyl-6-oxo-1,6-dihydro-3-pyridazinyl)-6-phenyl-N-(2-pyridylmethyl)nicotinamide] gave a melting point of 193 to 194 °C.

Take `CC(C)n1nc(-c2cc(C(=O)NCCO)cnc2-c2ccccc2)ccc1=O` [Example 20, N-(2-Hydroxyethyl)-5-(1-isopropyl-6-oxo-1,6-dihydro-3-pyridazinyl)-6-phenylnicotinamide]: the melting point fell in the range of 165 to 167 °C.
